Like-named read-outs stand apart in the source and are kept apart here.
How the values were obtained:
IL-4 = experiment: Cytokine assay: IL-4 release from PHA-L stimulated human PBMCs; format: cell-based; conditions: read-out: IL4 IC50
Protocol: (§1) Cytokine inhibitory activity is determined by measuring the effect of test agent on the release of the cytokines IL-4, IL-13 and IFNγ from human peripheral blood mononuclear cells (PBMCs) stimulated with the T-cell mitogen phytohemagglutinin-L (PHA-L). At the time of assay, human PBMCs (Astarte Biologics) are removed from cryopreservation, thawed quickly at 37° C., diluted in assay medium (RPMI-Gibco 1640 medium, 10% heat inactivated fetal bovine serum (HIFBS), 2 mM glutamine and 10 mM HEPES pH 7.4) and then centrifuged at 250×g for 5 minutes. The resulting cell pellet is re-suspended in assay medium to a concentration of approximately 5×10^6 cells/mL and 50 μL of this cell suspension (approximately 250,000 cells) is added to each well of a 384-well cell culture microtiter plate (Perkin Elmer). Varying concentrations of test compound are then diluted in assay medium and added to the assay plate wells in a volume of 25 μL. After −10 minutes at room temperature (21° C.) the cells are stimulated by the addition of 25 μL of PHA-L (14 μg/mL; Millipore) and the assay plate is placed in an incubator at 37° C. in a humidified environment in 5% carbon dioxide. The final assay conditions are approximately 250,000 human PBMCs per well in assay medium containing 3.5 μg/mL PHA-L and the indicated final concentration of test compound (approximately 10 μM to […] by 4-fold dilution). The final concentration of DMSO in the assay is approximately 0.25%. After 48 hours, the assay plate is removed from the incubator and centrifuged at 250×g for 5 minutes. A portion of the resulting cell supernatant is then used to determine the amount of IL-4, IL-13 and IFNγ in each well. Cytokine measurements are made using human IL-4, IL-13 or IFNγ HTRF assay kits (CisBio) following the manufacturer's assay protocol. The concentrations and resulting effect values for tested compounds are plotted and the concentration of compound required for 50% effect (IC50) is determined with a four-parameter logistic dose response equation (E-WorkBook, ID Business Solutions Ltd.) and shown in Table 17.

[1] = molecular target: PDE4B (aa 152-484, Uniprot ID Q07343) (Homo sapiens (Human), UniProt Q07343); experiment: PDE4 SPA assay (scintillation proximity assay); format: biochemical; conditions: read-out: PDE4B2 IC50
Protocol: Phosphodiesterase (PDE) activity is determined by measuring the effect of a test agent on the activity of the PDE4B enzyme in a scintillation proximity assay (SPA). At the time of assay, approximately 30 μL of PDE4B (aa 152-484, Uniprot ID Q07343) in 50 mM Tris pH 7.5, 1.3 mM MgC2, 0.004% Brij 35 is added to a 384 well white clear bottom polystyrene plate (Corning) containing 1 μL of varying concentrations of test compound. After −10 minutes at room temperature (RT; 21° C.), the assay is initiated by the addition of 20 μL of a mixture of ^3H-labeled (adenosine 3′, 5′-cyclic phosphate, ammonium salt, [2,8-^3H]; Perkin Elmer) and unlabeled cAMP. The final assay conditions are approximately 81.6 pM PDE4B in 50 mM Tris pH 7.5, 1.3 mM MgCl2, 0.004% Brij 35, 1 μM ^3H-labeled/unlabeled cAMP (1425 dpm/pmol) and the indicated final concentration of test compound (approximately 10 μM to […] by 4-fold dilution). The final concentration of DMSO in the assay is approximately 2.0%. After 30 minutes at RT, the assay is terminated by the addition of approximately 20 μL of an aqueous solution of PDE YSI SPA beads (8 mg/mL in water; Perkin Elmer). The beads are allowed to settle for at least 2 hours and the plate is then counted on a MicroBeta2 (Perkin Elmer). The concentrations and resulting effect values for the tested compound are plotted and the concentration of compound required for 50% effect (IC50) is determined with a four-parameter logistic dose response equation (E-WorkBook, ID Business Solutions Ltd.) and shown in Table 17.

IL-13 = experiment: Cytokine assay: IL-13 release from PHA-L stimulated human PBMCs; format: cell-based; conditions: read-out: IL13 IC50
Protocol: as §1

IFNγ = experiment: Cytokine assay: IFNγ release from PHA-L stimulated human PBMCs; format: cell-based
Protocol: as §1

Chain of PDE4B (aa 152-484, Uniprot ID Q07343) (Q07343 324-656): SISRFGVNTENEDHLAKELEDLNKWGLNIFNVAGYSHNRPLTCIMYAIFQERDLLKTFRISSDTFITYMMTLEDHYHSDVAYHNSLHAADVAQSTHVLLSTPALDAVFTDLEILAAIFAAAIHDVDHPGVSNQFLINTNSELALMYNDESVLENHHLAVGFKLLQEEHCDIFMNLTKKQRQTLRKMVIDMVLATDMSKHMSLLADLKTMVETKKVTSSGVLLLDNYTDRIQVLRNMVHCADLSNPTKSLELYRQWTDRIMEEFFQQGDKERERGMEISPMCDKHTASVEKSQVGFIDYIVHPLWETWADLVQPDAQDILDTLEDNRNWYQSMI

Structure (SMILES) | IC50 (IL-4; Homo sapiens, PBMC) [nM] | IC50 [1] [nM] | IC50 (IL-13; Homo sapiens, PBMC) [nM] | IC50 (IFNγ; Homo sapiens, PBMC) [nM] | IC50 (IL-4) [nM] | IC50 (IL-13) [nM] | IC50 (IFNγ) [nM]
CCCOc1cc(-c2cncc(C3COB(O)C3)c2)ccc1OCC (stereo not drawn) [Example 104, 4-(5-(4-ethoxy-3-propoxyphenyl)pyridin-3-yl)-1,2-oxaborolan-2-ol] | 29.4 | 3.58 | 750 | 5.46 |  |  | 
CCCOc1cc(-c2nc(C3COB(O)C3)ns2)ccc1OC (stereo not drawn) [Example 148] |  | 0.24 |  |  | 4.92 | 759 | 1.68
CCCOc1cc(-c2cccc(C3COB(O)C3)c2)ccc1OC (single isomer, unassigned) [Example 90, 4-(4′-methoxy-3′-propoxy-[1,1′-biphenyl]-3-yl)-1,2-oxaborolan-2-ol] |  | 4.33 |  |  | 290 | 2790 | 13.7
CCOc1cc(-c2cccc(C3COB(O)C3)n2)ccc1SC (stereo not drawn) [Example 203, 4-(6-(3-ethoxy-4-(methylthio)phenyl)pyridin-2-yl)-1,2-oxaborolan-2-ol] | 176 | 15 | 2180 | 114 |  |  | 
CCCOc1cc(-c2cncc([C@H]3COB(O)C3)c2)ccc1OC [Example 5, (S)-4-(5-(4-methoxy-3-propoxyphenyl)pyridin-3-yl)-1,2-oxaborolan-2-ol] | 36.3 | 0.93 | 2390 | 4.04 |  |  | 
CCOc1cc(-c2cc(C3COB(O)C3)cnc2C)ccc1OC (stereo not drawn) [Example 52, 4-(5-(3-ethoxy-4-methoxyphenyl)-6-methylpyridin-3-yl)-1,2-oxaborolan-2-ol] | 14.6 | 9.25 | 2610 | 5.74 |  |  | 
CCOc1ccc(-c2cncc(C3COB(O)C3)c2)cc1OCC (stereo not drawn) [Example 96, 4-(5-(3,4-diethoxyphenyl)pyridin-3-yl)-1,2-oxaborolan-2-ol] | 48.9 | 1.69 | 965 | 5.27 |  |  | 
COc1ccc(-c2cncc(C3COB(O)C3)n2)cc1OC1CCCC1 (single isomer, unassigned) [Example 126, 4-(6-(3-(cyclopentyloxy)-4-methoxyphenyl)pyrazin-2-yl)-1,2-oxaborolan-2-ol] | 7.21 | 0.85 | 680 | 0.79 |  |  | 
CCCOc1c(OC)ccc(-c2cccc(C3=CB(O)OC3)c2)c1C#N [Example 43, 3′-(2-hydroxy-2,5-dihydro-1,2-oxaborol-4-yl)-4-methoxy-3-propoxy-[1,1′-biphenyl]-2-carbonitrile] | 233 | 8.23 | 10000 | 76 |  |  | 
CCOc1cc(-c2cc(C3COB(O)C3)cnc2CC)ccc1OC (stereo not drawn) [Example 171, 4-(5-(3-ethoxy-4-methoxyphenyl)-6-ethylpyridin-3-yl)-1,2-oxaborolan-2-ol] | 2.43 | 1.73 | 1350 | 3.22 |  |  | 
COc1cnc(-c2cccc(C3COB(O)C3)c2)nc1OC1CCCC1 (stereo not drawn) [Example 93, 4-(3-(4-(cyclopentyloxy)-5-methoxypyrimidin-2-yl)phenyl)-1,2-oxaborolan-2-ol] | 9.87 | 0.5 | 460 | 1.66 |  |  | 
COc1ccc(-c2cccc(C3COB(O)C3)n2)cc1OC1CCCC1 (single isomer, unassigned) [Example 67, 4-(6-(3-(cyclopentyloxy)-4-methoxyphenyl)pyridin-2-yl)-1,2-oxaborolan-2-ol] |  | 4.02 |  |  | 99.9 | 759 | 12.6
COc1ccc(-c2nc(C3COB(O)C3)ns2)cc1OC1CC1 (single isomer, unassigned; enantiomer 2) [Example 181, (−) 4-(5-(3-cyclopropoxy-4-methoxyphenyl)-1,2,4-thiadiazol-3-yl)-1,2-oxaborolan-2-ol, enantiomer 2] | 2.23 | 0.68 | 1300 | 3.17 |  |  | 
CCCOc1nc(-c2cncc(C3COB(O)C3)c2)ccc1OC (single isomer, unassigned) [Example 62, 4-(5-methoxy-6-propoxy-[2,3′-bipyridin]-5′-yl)-1,2-oxaborolan-2-ol] |  | 0.28 |  |  | 2.66 | 2570 | 1.44
CCCCCOc1cc(-c2cccc(C3COB(O)C3)c2)ccc1OC (stereo not drawn) [Example 110, 4-(4′-methoxy-3′-(pentyloxy)-[1,1′-biphenyl]-3-yl)-1,2-oxaborolan-2-ol] | 48.4 | 0.61 | 496 | 5.1 |  |  | 
CCCOc1c(OC)ccc(-c2cccc(C3COB(O)C3)n2)c1C#N (single isomer, unassigned) [Example 87, 6-(6-(2-hydroxy-1,2-oxaborolan-4-yl)pyridin-2-yl)-3-methoxy-2-propoxybenzonitrile] | 19.1 | 5.03 | 444 | 3.02 |  |  | 
CCCOc1c(OC)ccc(-c2cccc(C3COB(O)C3)c2)c1C#N (stereo not drawn) [Example 42, 3′-(2-hydroxy-1,2-oxaborolan-4-yl)-4-methoxy-3-propoxy-[1,1′-biphenyl]-2-carbonitrile] | 90.4 | 0.35 | 205 | 1.55 |  |  | 
CCOc1cc(-c2c(C)ncc(C3COB(O)C3)c2C)ccc1OC (single isomer, unassigned; enantiomer 1) [Example 205, (+) 4-(5-(3-ethoxy-4-methoxyphenyl)-4,6-dimethylpyridin-3-yl)-1,2-oxaborolan-2-ol, enantiomer 1] | 1.06 | 0.52 | 1770 | 1.09 |  |  | 
CCCOc1cc(-n2ccc(C3COB(O)C3)n2)ccc1OC (stereo not drawn) [Example 200, 4-(1-(4-methoxy-3-propoxyphenyl)-1H-pyrazol-3-yl)-1,2-oxaborolan-2-ol] | 128 | 12.9 | 1600 | 14.1 |  |  | 
CCCOc1cc(-c2cc(C3COB(O)C3)cc(CO)n2)ccc1OC (stereo not drawn) [Example 202, 4-(2-(hydroxymethyl)-6-(4-methoxy-3-propoxyphenyl)pyridin-4-yl)-1,2-oxaborolan-2-ol] | 5.2 | 4.29 | 1670 | 8.51 |  |  | 
CCCOc1nc(-c2cncc(C3COB(O)C3)c2)ccc1OC (stereo not drawn) [Example 60, 4-(5-methoxy-6-propoxy-[2,3′-bipyridin]-5′-yl)-1,2-oxaborolan-2-ol] | 2.04 | 0.34 | 308 | 0.53 |  |  | 
CCOc1ccc(-c2cncc(C3COB(O)C3)c2)cc1OC (stereo not drawn) [Example 187, 4-(5-(4-ethoxy-3-methoxyphenyl)pyridin-3-yl)-1,2-oxaborolan-2-ol] | 41.1 | 4.28 | 1420 | 8.84 |  |  | 
COc1ccc(-c2cccc(C3=CB(O)OC3)c2)cc1OC1CCCC1 [Example 129, 4-(3′-(cyclopentyloxy)-4′-methoxy-[1,1′-biphenyl]-3-yl)-1,2-oxaborol-2(5H)-ol] | 34.5 | 4.04 | 3340 | 24.6 |  |  | 
CCCOc1cc(-c2cc(CO)nc(C3COB(O)C3)n2)ccc1OC (stereo not drawn) [Example 198, 4-(4-(hydroxymethyl)-6-(4-methoxy-3-propoxyphenyl)pyrimidin-2-yl)-1,2-oxaborolan-2-ol] | 14.2 | 14.3 | 1580 | 4.85 |  |  | 

Reference: patent US11559538B2, “Substituted 1,2-oxaborolan-2-ols as PDE4 inhibitors” (Pfizer Inc., priority 2018, dated 2023)
